Measured values from patent EP4489718B1, “METHOD FOR ENCAPSULATING A HYDROPHOBIC COMPOUND, SUSPENSION OF STRUCTURED LIPID PARTICLES ACCORDING TO THIS METHOD, AND USES OF SAID SUSPENSION” (SEDERMA, priority 2022, dated 2023).
Where two headings read alike, the source gives them in different places.

Columns and labels:
physchem = format: physicochemical
Source text: The Franz diffusion cell is the device most used to examine the release profiles of an active ingredient encapsulated in the capsules according to the invention. […] The product to be tested is placed in the upper chamber while the lower chamber collects the recipient fluid which has passed through the membrane. The rate and mechanism of release can be obtained by mathematical modelling. The rate can be calculated using the following first-order equation: […] And the release mechanism can be obtained using the Korsmeyer-Peppas model equation: Mt/M∞ = […] [formula] In which: • t is the release time • Mt is the quantity of released active at t time • M∞ is the total quantity of released active • Mt/M∞ being the fraction of released active at t time; • k is a kinetic constant, a measure of the release rate; and • n the diffusional exponent which gives an indication of the release mechanism of the active and takes on different values depending on the geometry of the release device. […] Selected membrane: […] Eight Franz cells containing the release medium and the membrane were prepared and placed in a temperature-controlled water bath of 32°C. […] The amount added to the membrane was 20% of the saturation concentration to ensure flow conditions. Samples were taken at selected intervals of 0.5 to 76 h with replacement of fresh medium. All samples collected were analysed for retinol content by HPLC on the day of the experiment. […] The mean of the four cells in both cases was plotted against time and used to apply the mathematical models. […] The release mechanism was obtained by the Korsmeyer-Peppas equation.

[1] = format: physicochemical
Procedure: Aim: to study whether the encapsulated retinol according to the invention supported UV irradiation and to compare with the non-encapsulated free retinol (solubilized in soybean oil).
Protocol: two samples, one containing free retinol and the other encapsulated retinol, were irradiated for 1 hour at about 40cm from the bulb of the solar lamp.
Retinol assay: by HPLC (UV detection at 325nm), the samples having been solubilized and diluted in isopropyl alcohol and the quantification having been carried out using a standard curve ranging from 2 to 150 ppm of retinol.

[2] = Stability study on storage (retinol content by HPLC, colour, pH, particle size); format: physicochemical
Procedure: Samples were diluted in isopropanol. […] A calibration curve was performed. For an accelerated stability study, suspension samples according to the invention were stored for 365 days at room temperature (RT), 180 days at 40°C, 90 days at 5°C and 60 days at 50°C. The long-term stability study was evaluated at RT. Samples were analysed for characterization parameters at test times 0, 7, 14, 21, 30, 60, and 90, 180 and 365 days, depending on each storage condition. At each analysis time, a new bottle was opened for the first time. To assess the impact of product handling during stability, an additional bottle of each sample was stored at RT. This same bottle was opened and handled under an air atmosphere at each analysis time (7, 14, 21, 30, 60 and 90 days for all samples for RT) and the results were compared to the cases of the bottles newly opened for each analysis. All samples were handled without direct contact with light and under normal air conditions. No inert gas was used either to fill the bottles or to handle any sample.

retinol degradation peaks in the chromatograms of the release samples (physchem): degradation peaks from 10h
half-life (physchem; 3% tween 80 in water): 2.03 h
release rate (physchem; Franz cell, PVDF 0.1 µm membrane, 3% Tween 80 / 97% water, 32°C, first-order model): 0.00089 min⁻¹
Actual content of retinol (in weight %) ([1]; After 1h of irradiation, about 40cm from solar lamp): 5.72 +/- 0.07 weight %
Actual content of retinol (in weight %) ([1]; Control (not irradiated)): 10.49 +/- 0.34 weight %
Retinol content in w/w % ([2]; storage 5°C, 0 days, suspension: new bottle for each test): 3.11 w/w %
Retinol content in w/w % ([2]; storage 5°C, 7 days, suspension: new bottle for each test): 3.14 w/w %
Retinol content in w/w % ([2]; storage 5°C, 14 days): 2.77 w/w %
Retinol content in w/w % ([2]; storage 5°C, 21 days): 0.42 w/w %
Retinol content in w/w % ([2]; storage 5°C, 30 days, suspension: new bottle for each test): 0.0 w/w %
Retinol content in w/w % ([2]; storage 40°C, 0 days, suspension: new bottle for each test): 3.11 w/w %
Retinol content in w/w % ([2]; storage 40°C, 7 days, suspension: new bottle for each test): 2.79 w/w %
Retinol content in w/w % ([2]; storage 40°C, 14 days): 0.89 w/w %
Retinol content in w/w % ([2]; storage 40°C, 21 days): 0.0 w/w %
Retinol content in w/w % ([2]; storage 40°C, 30 days, suspension: new bottle for each test): 0.0 w/w %
Retinol content in w/w % ([2]; storage 50°C, 0 days, suspension: new bottle for each test): 3.11 w/w %
Retinol content in w/w % ([2]; storage 50°C, 7 days, suspension: new bottle for each test): 2.51 w/w %
Retinol content in w/w % ([2]; storage 50°C, 14 days, suspension: new bottle for each test): 0.10 w/w %
Retinol content in w/w % ([2]; storage 50°C, 21 days, suspension: new bottle for each test): 0.0 w/w %
Retinol content in w/w % ([2]; storage 50°C, 30 days, suspension: new bottle for each test): 0.0 w/w %
Retinol content in w/w % ([2]; storage RT, 0 days, suspension: new bottle for each test): 3.11 w/w %
Retinol content in w/w % ([2]; storage RT, 7 days, suspension: new bottle for each test): 2.76 w/w %
Retinol content in w/w % ([2]; storage RT, 14 days, suspension: new bottle for each test): 2.40 w/w %
Retinol content in w/w % ([2]; storage RT, 21 days, suspension: new bottle for each test): 0.23 w/w %
Retinol content in w/w % ([2]; storage RT, 30 days, suspension: new bottle for each test): 0.25 w/w %
SMILES: CC1=C(/C=C/C(C)=C/C=C/C(C)=C/CO)C(C)(C)CCC1 [Free retinol, retinol]
